In ChEMBL document CHEMBL1201862, “PubChem BioAssay data set” (2004):
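Protocol summary: plate cells (96-well), add compound at 5 concentrations, incubate 48 h, interpolate endpoints linearly. GI50 is the concentration that inhibits growth by half.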 Activity calls are given as the source filed them. Rule as the data show it: active = GI50 up to about 1.1 µM and inactive = higher.

What was measured:
Experiment in all cases: inhibition of tumour cell growth, NCI panel, 48 h
UO-31 = test system: UO-31
NCI-H460 = test system: NCI-H460
SF-268 = test system: SF-268
SN12C = test system: SN12C
SK-MEL-5 = test system: SK-MEL-5
A498 = test system: A498
MDA-N = test system: MDA-N
HOP-92 = test system: HOP-92
LOX IMVI = test system: LOX IMVI
OVCAR-3 = test system: OVCAR-3
SK-MEL-28 = test system: SK-MEL-28
DU-145 = test system: DU-145
OVCAR-8 = test system: OVCAR-8
SNB-75 = test system: SNB-75
PC-3 = test system: PC-3
Hs-578T = test system: Hs-578T
TK-10 = test system: TK-10
ACHN = test system: ACHN
UACC-62 = test system: UACC-62

Row | Compound | GI50 (UO-31) | GI50 (NCI-H460) | GI50 (SF-268) | GI50 (SN12C) | GI50 (SK-MEL-5) | GI50 (A498) | GI50 (MDA-N) | GI50 (HOP-92) | GI50 (LOX IMVI) | GI50 (OVCAR-3) | GI50 (SK-MEL-28) | GI50 (DU-145) | GI50 (OVCAR-8) | GI50 (SNB-75) | GI50 (PC-3) | GI50 (Hs-578T) | GI50 (TK-10) | GI50 (ACHN) | GI50 (UACC-62)
1 | Cc1cc(S(=O)(=O)Nc2nc(N)nc(N(C)C)n2)c(SC(C(=O)O)c2ccccc2)cc1Cl (stereo not given) | > 10 µM (inactive) | > 10 µM (inactive) | > 10 µM (inactive) | > 10 µM (inactive) | > 10 µM (inactive) | > 10 µM (inactive) | > 10 µM (inactive) | > 10 µM (inactive) | > 10 µM (inactive) | > 10 µM (inactive) | > 10 µM (inactive) | > 10 µM (inactive) | > 10 µM (inactive) | > 10 µM (inactive) | > 10 µM (inactive) | > 10 µM (inactive) | > 10 µM (inactive) | > 10 µM (inactive) | –
2 | Cc1cc(=O)oc2cc(OC(=O)N(C)C)c(Cl)cc12 | > 100 µM (inactive) | > 100 µM (inactive) | 86.5 µM (inactive) | > 100 µM (inactive) | 76 µM (inactive) | > 100 µM (inactive) | > 100 µM (inactive) | 82 µM (inactive) | 85.5 µM (inactive) | > 100 µM (inactive) | > 100 µM (inactive) | > 100 µM (inactive) | > 100 µM (inactive) | – | > 100 µM (inactive) | > 100 µM (inactive) | > 100 µM (inactive) | > 100 µM (inactive) | 21.6 µM (inactive)
3 | CC(=N\N)/C(C)=N/N=C(C)/C(C)=N/N=C(C)/C(C)=N/N=C(C)/C(C)=N/N | > 100 µM (inactive) | > 100 µM (inactive) | > 100 µM (inactive) | > 100 µM (inactive) | > 100 µM (inactive) | > 100 µM (inactive) | > 100 µM (inactive) | 0.316 µM (active) | > 100 µM (inactive) | > 100 µM (inactive) | > 100 µM (inactive) | > 100 µM (inactive) | > 100 µM (inactive) | > 100 µM (inactive) | > 100 µM (inactive) | > 100 µM (inactive) | > 100 µM (inactive) | – | –
4 | Cc1cc(-c2cc(C(C)(C)C)c(O)c(C(C)(C)C)c2)c(C)cc1-c1cc(C(C)(C)C)c(O)c(C(C)(C)C)c1 | > 100 µM (inactive) | – | > 100 µM (inactive) | > 100 µM (inactive) | > 100 µM (inactive) | 27.3 µM (inactive) | > 100 µM (inactive) | 12.1 µM (inactive) | > 100 µM (inactive) | > 100 µM (inactive) | > 100 µM (inactive) | > 100 µM (inactive) | > 100 µM (inactive) | > 100 µM (inactive) | > 100 µM (inactive) | > 100 µM (inactive) | > 100 µM (inactive) | > 100 µM (inactive) | > 100 µM (inactive)
5 | CCN(CC)C(=S)SC(C(=O)Nc1nnc(-c2ccc(Cl)cc2)o1)c1ccccc1 (stereo not given) | 17 µM (inactive) | 10.4 µM (inactive) | 15.6 µM (inactive) | 13.3 µM (inactive) | 4.6 µM (inactive) | 11.9 µM (inactive) | 17.3 µM (inactive) | 16.6 µM (inactive) | 15.3 µM (inactive) | 3.21 µM (inactive) | 14 µM (inactive) | 20.1 µM (inactive) | 5.79 µM (inactive) | – | 3.35 µM (inactive) | 35.4 µM (inactive) | 23.5 µM (inactive) | 6.64 µM (inactive) | 7.35 µM (inactive)
6 | COC1C(O)CC(OC2C(C)OC(Oc3cc(O)c4c(O)c5c(cc4c3)C[C@@H]([C@H](OC)C(=O)[C@@H](O)[C@@H](C)O)[C@H](OC3CC(OC4CC(OC6CC(C)(O)C(O)C(C)O6)C(O)C(C)O4)C(O)C(C)O3)C5=O)CC2OC(C)=O)OC1C (stereo not given in full) | > 100 µM (inactive) | 31.6 µM (inactive) | 97.1 µM (inactive) | 32.5 µM (inactive) | 17.1 µM (inactive) | > 100 µM (inactive) | 97.7 µM (inactive) | – | 19.5 µM (inactive) | > 100 µM (inactive) | 32.2 µM (inactive) | > 100 µM (inactive) | 67.1 µM (inactive) | > 100 µM (inactive) | > 100 µM (inactive) | 20.3 µM (inactive) | > 100 µM (inactive) | 56.1 µM (inactive) | 29.4 µM (inactive)
7 | Cc1nc2sccn2c1C(=O)OCCOCCOCCOCCOC(=O)c1c(C)nc2sccn12 | 70.5 µM (inactive) | 80.7 µM (inactive) | > 100 µM (inactive) | > 100 µM (inactive) | 11.7 µM (inactive) | > 100 µM (inactive) | 36.1 µM (inactive) | > 100 µM (inactive) | 57.3 µM (inactive) | > 100 µM (inactive) | 90.2 µM (inactive) | > 100 µM (inactive) | 39.6 µM (inactive) | – | 63.2 µM (inactive) | > 100 µM (inactive) | > 100 µM (inactive) | > 100 µM (inactive) | 38.6 µM (inactive)
